Reference: ChEMBL document CHEMBL3779831, “Nitric Oxide Inhibitory Dimeric Sesquiterpenoids from Artemisia rupestris” (J Nat Prod, 2016)
pIC50: −log10 of the molar value.

Legend:
BV-2 = test: Inhibition of LPS-induced nitric oxide production in […] cells after 24 hrs by Griess assay; type: functional, cell-based; details: Mus musculus, BV-2, 24 h
[1] = Cytotoxicity against […] cells assessed as cell viability by MTT assay relative to control; type: cell-based, BV-2; set-up: concentration or dose not given beside the values; details: Mus musculus, read-out: Activity

pIC50 (BV-2) | SMILES | viability [1]
4.49 | C=C(C(=O)O)[C@@H]1CC[C@H](C)C2=C(C1)[C@]1(C)C[C@H]2C[C@@]1(C(=O)O)[C@@H]1CC[C@H](C)[C@@H]2CC(=O)C(C)=C2C1 | 90.7%
4.64 | C=C(C(=O)O)[C@@H]1CC[C@H](C)C2=C(C1)[C@]1(C)C[C@H]2C[C@@]1(C(=O)O)[C@@H]1CC[C@H](C)[C@@H]2CC(=O)C(C)=C2[C@H]1O | 91.1%
4.56 | C=C(C(=O)O)[C@@H]1CC[C@@]2(C)C=C[C@@H]3[C@@](C)(C[C@@]3(C(=O)O)[C@@H]3CC[C@H](C)[C@@H]4CC(=O)C(C)=C4C3)[C@@H]2C1 | 95.7%
4.14 | C=C(C(=O)O)[C@@H]1CC[C@H](C)C23C[C@]4(C(=O)O[C@]56C[C@H]4CC[C@H](C)[C@@H]5CC[C@]6(C)O)[C@@H](C(C)=C2C1)[C@@H]3O | 91.8%
4.36 | C=C(C(=O)O)[C@@H]1CC[C@H](C)C2=C[C@@H]3[C@@]4(CC2(C1)[C@@]3(C)O)C(=O)O[C@]12C[C@H]4CC[C@H](C)[C@@H]1CC[C@]2(C)O | 77.3%
4.41 | C=C(C(=O)O)[C@@H]1CC[C@H](C)C2=C(C1)[C@@]1(C)C[C@@H]2[C@](C(=O)O)([C@@H]2CC[C@H](C)[C@@H]3CC(=O)C(C)=C3C2)C1 | 90.7%
4.40 | C=C(C(=O)O)[C@@H]1CC[C@]2(C)[C@@H](C1)C(C)=C[C@H]1[C@@H]2C[C@]1(C(=O)O)[C@@H]1CC[C@H](C)[C@@H]2CC(=O)C(C)=C2C1 | 91.1%
4.52 | C=C(C(=O)O)[C@@H]1CC[C@@]2(C)[C@@H](OC(=O)C(=C)[C@@H]3CC[C@H](C)[C@@H]4CC(=O)C(C)=C4C3)C=C(C(C)=O)[C@@]2(O)C1 | 95.4%
4.77 | C=C(C(=O)O)[C@@H]1CC[C@H](C)[C@]23C[C@H](C(C)=C2C1)[C@]1(C3)C(=O)O[C@]23C[C@H]1CC[C@H](C)[C@@H]2CC[C@]3(C)O | 89.1%
4.48 | C=C(C(=O)O)[C@@H]1CC[C@]2(C)[C@@H](C1)C(C)=C[C@@H](OC(=O)C(=C)[C@@H]1CC[C@H](C)[C@@H]3CC(=O)C(C)=C3C1)[C@@H]2O | 96.7%
4.53 | C=C(C(=O)O)[C@@H]1CC[C@]2(C)C(=C(C)[C@@H](O)[C@H]3[C@@H]2C[C@]3(C(=O)O)[C@@H]2CC[C@H](C)[C@@H]3CC(=O)C(C)=C3C2)C1 | 94.6%
4.39 | C=C(C(=O)O)[C@@H]1CC[C@@]2(C)C[C@@H](OC(=O)C(=C)[C@@H]3CC[C@H](C)[C@@H]4CC(=O)C(C)=C4C3)C[C@@](C)(O)[C@@H]2C1 | 97.2%

SMILES | pIC50 (BV-2) | viability [1]
O=c1c(O)c(-c2ccc(O)c(O)c2)oc2cc(O)cc(O)c12 [QUERCETIN] | 5.06 | 99.5%
